Results as given in PubChem BioAssay AID1259342 (Broad Institute, 2017).
Calls of active or inactive are those of the source.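 Rule for the calls: active = fitted half-maximal inhibitory concentration AC50 at most ten times the top concentration tested; inconclusive = flat fit with 30 to 70% inhibition, or unusable fit; inactive = AC50 above ten times the top concentration.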

Target: E3 ubiquitin-protein ligase TRIM62 (Homo sapiens) (UniProt Q9BVG3)
Test: inhibitors of TRIM62-driven CARD9 ubiquitylation, dose response, CARD9-TRIM62 disruptor project, biochemical, ubiquitin ELISA, AlphaLISA TUBE (AID 1259342);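 for AC50: potency is for inhibitors that reduce CARD9 ubiquitylation signal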
Settings: TRIM62-mediated CARD9 ubiquitylation, AlphaLISA TUBE detection

Sequence of E3 ubiquitin-protein ligase TRIM62 (Homo sapiens) (Q9BVG3 whole entry, looked up): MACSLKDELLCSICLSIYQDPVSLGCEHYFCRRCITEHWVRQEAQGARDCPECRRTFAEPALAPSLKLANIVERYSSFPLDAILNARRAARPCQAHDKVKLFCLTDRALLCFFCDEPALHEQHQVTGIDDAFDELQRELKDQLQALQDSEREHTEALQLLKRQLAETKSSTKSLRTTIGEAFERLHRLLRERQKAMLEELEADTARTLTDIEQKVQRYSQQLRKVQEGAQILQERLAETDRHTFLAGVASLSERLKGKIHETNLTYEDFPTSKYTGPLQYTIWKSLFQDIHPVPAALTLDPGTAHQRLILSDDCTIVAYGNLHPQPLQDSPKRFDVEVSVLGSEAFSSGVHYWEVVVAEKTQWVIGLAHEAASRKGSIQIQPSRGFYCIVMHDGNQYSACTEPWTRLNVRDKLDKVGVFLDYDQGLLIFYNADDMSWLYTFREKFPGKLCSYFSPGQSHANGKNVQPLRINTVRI

## O=C(Nc1nc(-c2nc3ccccc3s2)cs1)c1ccco1
At 38 µM (top of the series)
  activity change, negative = inhibition: inactive

## O=C(CCc1nc(-c2ccccc2)no1)NCC1CNCCOC1 (stereo not given)
At 80 µM (top of the series)
  activity change, negative = inhibition: inactive

## Cc1ccc(-c2nnc(-c3nc(Nc4nc5ccccc5s4)c4ccccc4n3)o2)cc1
At 38 µM (top of the series)
  activity change, negative = inhibition: inactive

## O=C1c2ccccc2S(=O)(=O)N1Cc1cccc(S(=O)(=O)N2CCOCC2)c1
At 80 µM (top of the series)
  activity change, negative = inhibition: inactive

## COCCCNC(=O)C1CCN(c2ccc(N3CCOCC3)nn2)CC1
At 80 µM (top of the series)
  activity change, negative = inhibition: inactive

## NC(=O)C1(N2CCCCC2)CCN(c2ccc(NC(=O)c3cccc(Cl)c3)cc2C(=O)O)CC1
At 80 µM (top of the series)
  activity change, negative = inhibition: inactive

## CC(C)(C)c1ccc(-c2nc(C#N)c(NCc3ccncc3)o2)cc1
  AC50: 22.3 µM

## CS(=O)(=O)N1CCN(c2ccc([N+](=O)[O-])c(SCc3ccco3)c2)CC1
At 80 µM (top of the series)
  activity change, negative = inhibition: inactive

## CCOC(=O)c1[nH]c(Cc2[nH]c(C(=O)OCC)c(C)c2C)c(C)c1C
  AC50: > 160 µM (inactive)

## O=C(NCc1ccco1)C1CCCN(S(=O)(=O)c2cccc3nonc23)C1 (stereo not given)
At 80 µM (top of the series)
  activity change, negative = inhibition: inactive

## CCc1oc2ccccc2c1C(=O)CCN1CCCCC1
At 80 µM (top of the series)
  activity change, negative = inhibition: inactive

## Cc1ccc(C(=O)Nc2cnc(N3CCC(C(N)=O)(N4CCCCC4)CC3)c(C(=O)O)c2)cc1
  AC50: 9.21 µM

## O=C(Cc1ccc(S(=O)(=O)N2CCOCC2)s1)Nc1nc2c(s1)CCCC2
  AC50: 26 µM

## COc1ccc(CNC(=O)c2nc(Nc3ccc(C)cc3)c3ccccc3n2)cc1
At 80 µM (top of the series)
  activity change, negative = inhibition: inactive

## CCOC(=O)c1ccc(-c2ccc(C3CC(=O)Nc4cc5c(cc43)OCCO5)o2)cc1 (stereo not given)
At 80 µM (top of the series)
  activity change, negative = inhibition: inactive

## Nc1c2c(nc3ccccc13)CCN(Cc1ccccc1)C2
  AC50: > 160 µM (inactive)

## Cc1ccccc1C(=O)Nc1cnc(N2CCC(C(N)=O)(N3CCCCC3)CC2)c(C(=O)O)c1
  AC50: 9.03 µM

## C(=C\c1ccco1)/c1nc2ccccc2[nH]1
  AC50: 29 µM

## O=C1C=C(c2ccccc2)Nc2ccccc2N1
At 80 µM (top of the series)
  activity change, negative = inhibition: inactive

## Nc1ccc2ncccc2c1N
At 80 µM (top of the series)
  activity change, negative = inhibition: inactive

## CCOc1ccc(-n2c3nc4ccccc4nc3c3c(=O)n(Cc4ccco4)cnc32)cc1
At 80 µM (top of the series)
  activity change, negative = inhibition: inactive

## Cc1nc(C)c(C(=O)Nc2ncc([N+](=O)[O-])s2)o1
  AC50: 3.96 µM

## N#Cc1c(-c2ccco2)cc(-c2cccnc2)nc1N
At 80 µM (top of the series)
  activity change, negative = inhibition: inactive

## Cc1ccc(Cc2cnc(N)s2)o1
  AC50: > 160 µM (inactive)

## CC(=O)Nc1ccc2nc3c(=O)n(C)c(=O)n(C)c3nc2c1
  AC50: 48.2 µM

## O=C(NCCc1ccccc1)c1cc2cccnc2n(Cc2ccccc2)c1=O
At 80 µM (top of the series)
  activity change, negative = inhibition: inactive

## O=C(NCc1ccco1)[C@@H]1CSC2c3ccccc3C(=O)N21 (stereo not given in full)
At 80 µM (top of the series)
  activity change, negative = inhibition: inactive

## N#Cc1c2c(c(NCc3ccco3)n3c1nc1ccccc13)CCC2
At 80 µM (top of the series)
  activity change, negative = inhibition: inactive

## Cc1oc(CSCc2cc(C(=O)O)c(C)o2)cc1C(=O)O
  AC50: > 160 µM (inactive)

## NC(=O)C1(N2CCCCC2)CCN(c2ncc(NC(=O)c3cccs3)cc2C(=O)O)CC1
  AC50: 35.8 µM

## CCCCCn1c(NC(=O)c2ccco2)c(C(=O)OCC)c2nc3ccccc3nc21
At 38 µM (top of the series)
  activity change, negative = inhibition: inactive

## O=C1CC(c2ccco2)Cc2nc(N3CCc4ccccc4C3)ncc21 (stereo not given)
At 80 µM (top of the series)
  activity change, negative = inhibition: inactive

## COC[C@]1(O)CCN(C(=O)CCN(C)S(C)(=O)=O)CC1(C)C
At 80 µM (top of the series)
  activity change, negative = inhibition: inactive

## Fc1ccc(CSc2nnc(-c3cccnc3)n2Cc2ccco2)cc1
At 80 µM (top of the series)
  activity change, negative = inhibition: inactive

## CCOC(=O)C1CCN(C(=O)CN(Cc2ccccc2)S(C)(=O)=O)CC1
At 80 µM (top of the series)
  activity change, negative = inhibition: inactive

## O=C(CCCN1C(=O)NC2(CCCC2)C1=O)Nc1ccc(F)cc1
At 80 µM (top of the series)
  activity change, negative = inhibition: inactive

## NC(=O)C1(N2CCCCC2)CCN(c2ncc(NC(=O)c3ccccc3)cc2C(=O)O)CC1
  AC50: 6.61 µM

## Cc1ccc(N2NC(c3ccc(Br)cc3)=CCC2=O)cc1
  AC50: > 160 µM (inactive)

## CCN(CCNC(=O)C1CCN(S(=O)(=O)c2c(C)noc2C)CC1)c1ccccc1
  AC50: > 160 µM (inactive)

## CC1(C)Cc2ccccc2-c2nc(-c3ccccc3)oc(=O)c21
  AC50: 6.32 µM

## O=C(Cn1c(=O)cc(C(=O)N2CCc3ccccc3C2)c2ccccc21)NCc1ccc2c(c1)OCO2
  AC50: 11.8 µM

## Cc1cccc(Nc2nc(C(=O)Nc3cc(F)ccc3F)nc3ccccc23)c1
  AC50: 24.3 µM

## O=C(O)Cc1c[nH]c2cccc(O)c12
  AC50: 0.921 µM

## CCSCCNC(=O)c1cncc(Br)c1
At 80 µM (top of the series)
  activity change, negative = inhibition: inactive

## Cn1ncc2c(NNC(=O)c3cc(O)cc(O)c3)ncnc21
At 80 µM (top of the series)
  activity change, negative = inhibition: inactive

## Clc1ccc2nc(CN3CCCCCC3)cn2c1
At 80 µM (top of the series)
  activity change, negative = inhibition: inactive

## O=C(Nc1ccc2c(c1)nc1n2CCN(C2CCCCC2)C1)c1ccco1
At 80 µM (top of the series)
  activity change, negative = inhibition: inactive

## O=C(NC(Sc1ncccn1)C(=O)c1ccccc1)c1ccccc1 (stereo not given)
At 80 µM (top of the series)
  activity change, negative = inhibition: inactive

## O=C(O)c1cc(-c2ccc(-c3ccc(F)cc3)o2)nc2ccccc12
  AC50: 31.4 µM

## Cc1[nH]c2ccc(Cl)cc2c(=O)c1CN1CCCC1
At 80 µM (top of the series)
  activity change, negative = inhibition: inactive

## CCCN1CCc2nc(SCc3nc(-c4ccc(OC)cc4OC)oc3C)[nH]c(=O)c2C1
  AC50: > 160 µM (inactive)

## Cc1scc(C(=O)NCc2ccco2)c1-c1ccccc1
At 80 µM (top of the series)
  activity change, negative = inhibition: inactive

## Cc1ccc(C2CC(=O)C3=C(C2)Nc2ccccc2NC3c2cccnc2)cc1 (stereo not given)
At 80 µM (top of the series)
  activity change, negative = inhibition: inactive

## Cc1ccc2cc(CN(Cc3ccco3)S(C)(=O)=O)c(=O)[nH]c2c1
At 80 µM (top of the series)
  activity change, negative = inhibition: inactive

## O=C(NC1CC1)c1cc(-c2ccco2)nc2ccccc12
  AC50: 21.2 µM

## CC(CCc1ccco1)N(C)S(=O)(=O)c1ccc2[nH]c(=O)ccc2c1 (stereo not given)
At 80 µM (top of the series)
  activity change, negative = inhibition: inactive

## CC(C)C(CC(=O)NCc1ccco1)c1ccco1 (stereo not given)
  AC50: 5.47 µM

## O=C(COC(=O)c1cc(-c2ccco2)nc2ccccc12)NCc1ccc2c(c1)OCO2
At 80 µM (top of the series)
  activity change, negative = inhibition: inactive

## O=C(O)COc1ccc(-n2cccc2)cc1
  AC50: 14.7 µM

## Cc1cc(C(=O)NCc2ccco2)on1
At 80 µM (top of the series)
  activity change, negative = inhibition: inactive

## O=C(COC(=O)c1cc(-c2cccs2)nc2ccccc12)NCc1ccco1
  AC50: 26.2 µM

## O=C(Nc1cccc2ccccc12)NC1CC1
At 80 µM (top of the series)
  activity change, negative = inhibition: inactive

## O=C(Nc1nc(-c2ccco2)c(-c2ccco2)s1)c1ccc(F)cc1F
  AC50: > 160 µM (inactive)

## O=C(Cn1cncc1-c1ccc([N+](=O)[O-])cc1)Nc1ccccc1F
At 80 µM (top of the series)
  activity change, negative = inhibition: inactive

## COc1ccc(S(=O)(=O)c2ccccc2)cc1NS(=O)(=O)c1cccc(C(=O)O)c1
At 80 µM (top of the series)
  activity change, negative = inhibition: inactive

## COc1cc(N)c(Cc2nccc3cc(OC)c(OC)cc23)cc1OC
  AC50: 79.5 µM

## Cc1ccc(C)n1Nc1nc(O)cs1
At 38 µM (top of the series)
  activity change, negative = inhibition: inactive

## COc1ccc(F)c(CN2C[C@H]3CC[C@@H]2CN(Cc2cscn2)C3)c1
  AC50: > 160 µM (inactive)

## COc1ccc(-c2nc(SCC(=O)N3CCN(c4ccccc4OC)CC3)n[nH]2)cc1
At 80 µM (top of the series)
  activity change, negative = inhibition: inactive

## O=C(N/N=C/C=C/c1ccco1)c1cncc(Br)c1
At 80 µM (top of the series)
  activity change, negative = inhibition: inactive

## O=C(NCc1ccco1)c1ccc(S(=O)(=O)N2CCOCC2)cc1
At 80 µM (top of the series)
  activity change, negative = inhibition: inactive

## COc1ccc2nc(-c3ccco3)c(-c3ccco3)nc2c1
  AC50: 24.9 µM

## O=C(NCc1cccnc1)c1ccccc1-c1nc(-c2ccccc2)no1
At 80 µM (top of the series)
  activity change, negative = inhibition: inactive

## Cc1sc2ncnc(SCc3ccco3)c2c1C
  AC50: 56.6 µM

## O=C(CN1CCOC1=O)N1CCC2(CCC(=O)N(CCCn3ccnc3)C2)CC1
At 80 µM (top of the series)
  activity change, negative = inhibition: inactive

## Cc1ccc(C(=O)Nc2ccc(N3CCC(C(N)=O)(N4CCCCC4)CC3)c(C(=O)O)c2)cc1
At 80 µM (top of the series)
  activity change, negative = inhibition: inactive

## Cc1ccc(-c2cc(C(=O)NCc3ccco3)c3ccccc3n2)o1
At 38 µM (top of the series)
  activity change, negative = inhibition: inactive

## COc1ccc(-c2nnc(-c3nc(Nc4ccc(NC(C)=O)cc4)c4ccccc4n3)o2)cc1
At 80 µM (top of the series)
  activity change, negative = inhibition: inactive

## CCc1cc2c(=O)n(Cc3ccco3)c(SC)nc2s1
  AC50: > 160 µM (inactive)

## O=C(O)CCc1ccc(-c2cccs2)n1NC(=O)c1ccco1
  AC50: 63.5 µM

## Cc1c(C(=O)OCC2CCCO2)[nH]c2c1C(=O)CC(c1ccco1)C2 (stereo not given)
  AC50: 38.1 µM

## CN(Cc1ccco1)S(=O)(=O)c1nnc(NC(=O)c2ccccc2)s1
At 80 µM (top of the series)
  activity change, negative = inhibition: inactive

## Cc1ccc(-c2cc(C(=O)Nc3ccccn3)c3ccccc3n2)o1
  AC50: 60.9 µM

## CCOc1ccccc1NC(=O)N1CCCC(c2nccn2CCOC)C1 (stereo not given)
At 80 µM (top of the series)
  activity change, negative = inhibition: inactive

## CCCc1cc(C(=O)N2CC[C@H]3CNC[C@H]32)n(C)n1
At 80 µM (top of the series)
  activity change, negative = inhibition: inactive

## CC(=O)Nc1ccc(Nc2nc(-c3nnc(-c4cccc(C)c4)o3)nc3ccccc23)cc1
  AC50: 19 µM

## N#CNc1nc(O)cc(=O)[nH]1
At 80 µM (top of the series)
  activity change, negative = inhibition: inactive

## O=C(NCCc1ccco1)c1ccc(OCc2cn3ccccc3n2)cc1
At 38 µM (top of the series)
  activity change, negative = inhibition: inactive

## Cc1ncnc(N2CCC(c3nccn3Cc3cccnc3)CC2)c1C
At 80 µM (top of the series)
  activity change, negative = inhibition: inactive

## O=C(COC(=O)c1ccc(S(=O)(=O)NCc2ccco2)cc1)Nc1ccc(Cl)cn1
  AC50: 26.9 µM

## N#Cc1c(NC(=O)CSc2nc3ccccc3o2)sc2c1CCC2
  AC50: 74.1 µM

## O=C(Nc1nnc(-c2ccco2)s1)c1ccccc1
At 80 µM (top of the series)
  activity change, negative = inhibition: inactive

## O=C(Nc1nccs1)c1cc(-c2ccccn2)nc2c(Cl)cccc12
  AC50: 75.4 µM

## O=C(O)c1ccc2nc(-c3ccco3)c(-c3ccco3)nc2c1
  AC50: 11.8 µM

## COc1ccc(Nc2nc(-c3nnc(-c4ccc(F)cc4)o3)nc3ccccc23)cc1Cl
At 80 µM (top of the series)
  activity change, negative = inhibition: inactive

## COc1ccc(N2Cc3cccc(C(=O)NC(C)CCc4ccco4)c3C2=O)cc1 (stereo not given)
At 80 µM (top of the series)
  activity change, negative = inhibition: inactive

## CCc1nc(OCc2ccco2)c2sc3nc4c(cc3c2n1)COC(C)(C)C4
  AC50: > 160 µM (inactive)

## NC(=O)c1ccc(CN2C(=O)C3(CCNCC3)Nc3ccccc32)cc1
At 80 µM (top of the series)
  activity change, negative = inhibition: inactive

## CC1CCN(c2nc(-c3ccco3)c3c(c2C#N)CC(C)(C)OC3)CC1
  AC50: 17.6 µM

## COc1ccc(-c2ccc(CCC(=O)O)o2)cc1
  AC50: 18.1 µM
